{
  "source": "paper PMC12078333",
  "about": "“Pharmacokinetic evaluation and bioavailability of KPT-335 (Verdinexor) in cats” (Frontiers in Veterinary Science, 2025)",
  "key": {"[1]": {"conditions": "cited from earlier work"}, "[2]": {"experiment": "Adverse reaction assessment in test cats (body weight, behavior, coat gloss)", "format": "in vivo", "conditions": "all tested cats, i.v. 1 mg/kg BW and p.o. 0.2–2 mg/kg BW, single dose", "procedure": "In this study, a parallel trial design was employed, 42 adult domestic cats (21 males and 21 females), aged 1 to 2 years and weighing 2.5 ± 0.25 kg. Cats were grouped by random number, with half male and female in each group, and all cats were determined to be systemically healthy during an initial screening visit 1 week prior to the experiment. They were acclimatized to the laboratory environment for 7 days before the study commenced. During this period, they were kept in solitary cages with free access to water. Cats in the fasting group were deprived of food for 12 h prior to and 2 h following drug administration, while those in the feeding group were fed twice a day. Food and water sources were consistent throughout the trail. During and at the end of the experiment, we systematically assessed the adverse reactions by recording parameters such as body weight, behavior, and coat gloss in all test cats both before and after the trial. These observations were conducted to evaluate whether any adverse reactions occurred. All procedures were reviewed and approved by the Institutional Animal Care and Use Committee of China Agricultural University (11305-23-E-002)."}, "[3]": {"experiment": "Solubility of KPT-335 (pH dependence, unpublished data)", "format": "physicochemical"}, "[4]": {"conditions": "cat, in vivo", "procedure": "Based on the dose administered in dogs, the selection of dosages for evaluating KPT-335 in cats was calculated using the Km factor, which adjusts drug doses across species based on body surface area (BSA) ([16]). […] For oral (p.o.) administration, single doses of 1 mg/kg BW and 2 mg/kg BW were tested across two groups. Additionally, an oral capsule group was administered at 0.2 mg/kg BW. […] The maximum safe dosage for dogs was determined to be 1.75 mg/kg BW, based on dosage conversion, the maximum safe dosage for cats was determined to be 2.33 mg/kg BW. Thus, we categorized the dosages as follows: 2 mg/kg BW was designated as the oral high-dose group, 1 mg/kg BW as the oral medium-dose group, and 0.2 mg/kg BW (1/10 of the recommended dose) as the oral low-dose group. These doses were determined based on the maximum safe dose in dogs and the solubility limitations of the drug. The smallest commercially available tablet contained 2.5 mg of KPT-335 and could not be divided, which meant that only whole tablets could be administered. Consequently, the 0.2 mg/kg BW dose could not be accurately achieved and was excluded from the tablet group trials. Only the 1 mg/kg BW and 2 mg/kg BW doses were included in the tablet groups. […]"}, "[5]": {"conditions": "dogs; cited from earlier work"}, "pKa (unpublished data)": {"experiment": "pKa (unpublished data)", "format": "physicochemical", "conditions": "weak base"}, "[6]": {"conditions": "dogs, orally 1.25 mg/kg BW (n = 4) ref 13"}, "[7]": {"conditions": "dogs, orally 1.5 mg/kg BW (n = 4) ref 13"}, "[8]": {"conditions": "healthy dogs, phase I study, 1.5 mg/kg BW ref 9"}},
  "note": "Read-outs that look alike come from different tables or passages of the source.",
  "data": [
    {"compound": "O=C(/C=C\\n1cnc(-c2cc(C(F)(F)F)cc(C(F)(F)F)c2)n1)NNc1ccccn1", "note": "[KPT-335]", "values": [
      {"measurement": "AUClast", "setting": "[1]; dogs, 1.5 mg/kg BW ref 9, 13", "value": "1800–2,300 h·ng/mL"},
      {"measurement": "Cmax", "setting": "[1]; dogs, 1.5 mg/kg BW ref 9, 13", "value": "250 to 310", "unit": "ng/mL"},
      {"measurement": "half-life", "setting": "[1]; dogs, 1.5 mg/kg BW ref 9, 13", "value": "approximately 4 h"},
      {"measurement": "mean AUC", "setting": "[1]; [6]", "value": 1576.6, "unit": "ng·h/mL"},
      {"measurement": "mean Cmax", "setting": "[1]; [6]", "value": 244.8, "unit": "ng/mL"},
      {"measurement": "mean AUC", "setting": "[1]; [7]", "value": 2346.8, "unit": "ng·h/mL"},
      {"measurement": "mean Cmax", "setting": "[1]; [7]", "value": 312, "unit": "ng/mL"},
      {"measurement": "AUClast", "setting": "[1]; [8]", "value": "1760 ± 223", "unit": "ng·h/mL"},
      {"measurement": "Cmax", "setting": "[1]; [8]", "value": "253 ± 88.3", "unit": "ng/mL"},
      {"measurement": "T1/2", "setting": "[1]; [8]", "value": "3.88 ± 2.71", "unit": "h"},
      {"measurement": "adverse reactions", "setting": "[2]", "value": "no adverse reactions"},
      {"measurement": "aqueous solubility", "setting": "[3]", "value": "low aqueous solubility"},
      {"measurement": "lower solubility at pH 3.8 versus pH 1.5", "setting": "[3]; unpublished data", "value": 50, "unit": "fold"},
      {"measurement": "maximum safe dosage", "setting": "[4]", "value": 2.33, "unit": "mg/kg BW"},
      {"measurement": "maximum safe dosage", "setting": "[5]", "value": 1.75, "unit": "mg/kg BW"},
      {"measurement": "pKa", "setting": "pKa (unpublished data)", "value": 10.6}
    ]}
  ]
}
